Laboratory results as given in paper PMC5554167, “Intestinal transepithelial permeability of oxytocin into the blood is dependent on the receptor for advanced glycation end products in mice” (Scientific Reports, 2017).

How the values were obtained:
[1] = [3H]OT administered to lactating rats; cited from earlier work
[2] = cited from earlier work
Description: Breast milk contains a dynamic supply of hormones, including oxytocin (OT[4], [5], [10]–[15]), which is concentrated from the mother’s general circulation. […] OT in early life plays a role in the development of the social brain and in establishing social behaviour in adults, [20]–[23]. Therefore, breast milk not only nourishes beneficial microbes and provides immunity but also appears to improve well-being by improving human communication, [24]–[28]. Altho ...

[3] = Plasma OT after intestinal delivery of OT in pups (EIA); type: in vivo, mice
Description: To confirm that the above increase after oral administration was primarily owing to permeability from the intestine, 5 μL of 100 μM OT (0.5 μg/pup) was applied directly into the small intestine, bypassing the mouth, buccal mucosal membrane, and/or upper parts of the digestive tract, including the oesophagus and stomach. The plasma OT in blood samples collected from the neck (Fig. 2a, inset) reached a peak at 10 min and decreased at 60 min and 120 min after intestinal application (Supplementary Fig. 1). […] The plasma OT level was higher at PND1 and PND3 than at PND7 in the group injected with OT (***P < 0.001 and **P < 0.01; Fig. 2a).
OT (100 μM) was injected through needles (28 G) into the proximal part (1~2 cm from the pylorus) of the small intestine of pups (5 μL) and adults (100 μL) under ketamine anaesthesia ([…] intraperitoneally), after the abdominal skin was cut to expose the small intestine in the abdominal cavity. The intestine was returned to the cavity or covered with paper and rinsed with saline. For the isolated pup intestines, 30 μL of 10 μM OT was injected at the distal end.
(§1) Approximately 30 μL of blood was collected from the facial vein of neonates after quick cold anesthesia on ice (Fig. 1a; ref. [67], [68]). […]
(§2) OT or AVP immunoreactivity levels were quantified by using OT and AVP enzyme immunoassay (EIA) kits (Enzo Life Sciences, NY, USA), respectively. […]

[4] = Plasma OT after oral delivery of OT in adult mice (EIA); type: in vivo
Description: In adult male mice (8 weeks old), when oral OT was administered at the same dose used for neonates (1 μg/mouse), as in Fig. 1b, no increase in the plasma OT concentration was observed (data not shown). To examine whether permeability exists in the adult intestine after barrier formation, a 10-fold higher volume of OT (100 μM × 100 μL) was used for oral delivery (10 μg/mouse). Blood samples were collected from anesthetized mice using a tail snip procedure, and OT concentrations were measured (Fig. 5a, inset).
Milk-borne OT was fed by mothers for 20 min after 20 min of starvation. A synthetic OT solution (100 µM; 10 μL for pups and 100 μL for adults) was administered orally. The same dose of [ILe^13C, ^15N]OT was delivered orally to pups. For oral administration, pups or adult mice were held by hand, and the OT solution was dispensed into their mouths using polypropylene tips.
as §1, §2

[5] = Plasma OT after oral delivery of OT in pups (EIA); type: in vivo, mice; settings: both sexes, C57BL/6N, 1 μg/mouse, wild-type pups PND6, oral 1 μg of OT/mouse, n = 5–8, read-out: Time of peak plasma OT concentration (converted)
Description: The possibility of transport during the suckling period of development (from PND1 to PND15) was confirmed by comparing plasma OT levels at 10 min after oral delivery with 10 μL of 100 μM synthetic OT solution (1 μg/pup) or the same volume of phosphate buffered saline (PBS) to male and female pups after fasting for 30 min. […] The plasma OT concentrations after oral OT delivery remained at higher levels at PND3–5 than in the saline controls (two-way analysis of variance (ANOVA), F 8.90 = 3.32, P < 0.002: Bonferroni’s post hoc tests for differences between OT and PNDs (^a P < 0.001, ^b P < 0.01, and ^c P < 0.05 from the value at PND8) and between OT and PBS (^d P < 0.01). The OT concentration dropped suddenly after PND6, although it remained higher than that in the saline control group. At PND8 and PND15, no concentration difference in plasma OT levels was observed between pups orally administered OT vs. those administered PBS.
The time profile of the plasma OT concentration after oral administration of OT peaked at 10 min in pups at PND6 (n = 5–8, one-way ANOVA, F 5,37 = 3.302, P < 0.02 from the control value; Fig. 1c). The plasma OT level depended on the oral OT dose in pups at PND6 (one-way ANOVA, F 3,24 = 20.35, P < 0.0001; Fig. 1d). […]
as §2

[6] = Plasma OT after suckling of dam's milk in pups, estimate of availability; type: in vivo, mice
Description: […] No clear difference in the OT level was observed between male and female pups.
An estimation of bioavailability was performed in adult mice. Fifty ng/mL of OT was detected after oral delivery of 10 μg of OT. Young adults weigh approximately 30 g and have 2.3 mL blood, so approximately 1% of oral OT can be absorbed. We have previously identified OT in the mammary tissues of mouse dams and in the milk curd inside the oesophagi of pups[13]. To determine the OT concentrations in milk, we needed to collect milk from the mothers. One common method is to collect milk after stimulating secretion with external OT. Because such milk contains external OT, we were unable to calculate the OT concentrations in milk. However, we carried out a new collection method without exogenous OT stimulation. We obtained samples at 5 days after parturition, and the concentration of milk OT was 1,200 pg/mL. If we estimate a pup’s milk intake to be 100 μL, the pups will ingest 120 pg of OT. […] According to Tanaka et al.[11], when [^3H]OT is administered to lactating rats, the radioactivity of intact OT in the neonatal content is 4.4% of the counts obtained for the maternal plasma. […]
as §2

[7] = much longer in mucosal tissues; cited from earlier work
Description: OT absorption through the intestine was more difficult to detect in adults. The reasons for this difference with age may be owing to the progressive digestion of OT and strengthening of the gastrointestinal tract barrier. Similarly, a gradual decline in plasma OT concentrations during development appears to be caused by establishment of the intestinal barrier and intestinal digestion (Ref. [49] and Fig. 3d). Digestion is at a low level at birth and increases progressively during the first week in mice and humans. However, digestion of OT takes more than 30 min and is much longer in mucosal ...

Compound	Radioactivity of intact OT in the neonatal content, % of the counts of maternal plasma [1] [%]	Stability in gastric acid [2]	Tmax ([3]; both sexes, C57BL/6N, mouse, plasma, pups (PND5, Supplementary Fig. 1), 0.5 μg/pup into the small intestine, read-out: Time of peak plasma OT concentration (converted)) [min]	Decrease of plasma OT concentration from PND1 to PND7 ([3]; wild-type pups, 10 min after intestinal OT injection (0.5 μg/pup))	Change of plasma OT concentration ([4]; adult male mice (8 weeks old), oral 1 μg/mouse, data not shown)	Oral OT absorbed (estimated bioavailability) ([4]; adult mice, oral 10 μg of OT, assumes 30 g weight and 2.3 mL blood)	Tmax [5] [min]	Availability of milk OT ([6]; PND5 pups, milk OT 1,200 pg/mL, milk intake 100 μL (120 pg), blood volume 200 μL, increase 20 pg) [%]	Increase of plasma OT after suckling ([6]; pups fed with dam's milk)	Time for digestion of OT [7]
[^3H]OT: tritium-labelled oxytocin administered to lactating rats in a cited study	4.4									
CC[C@H](C)[C@@H]1NC(=O)[C@H](Cc2ccc(O)cc2)NC(=O)[C@@H](N)CSSC[C@@H](C(=O)N2CCC[C@H]2C(=O)N[C@@H](CC(C)C)C(=O)NCC(N)=O)NC(=O)[C@H](CC(N)=O)NC(=O)[C@H](CCC(N)=O)NC1=O [OT, oxytocin]		relatively stable	10	approximately 4.6 fold	no increase	approximately 1%	10	16.6	approximately 100 pg/mL	more than 30 min
